The AC50 is the concentration at which the activity in the assay is half-maximal. For orientation: EC50 means the concentration giving half of the maximal effect. In general, IC50 refers to the concentration that gives 50% inhibition.

The values that follow come from ChEMBL document CHEMBL1201862, “PubChem BioAssay data set” (2004).

The structures appear in SMILES notation. Active and inactive are the calls of the source. A value given as a limit tells only on which side of the number the result lay.

Assay [1] addresses Cyclin-dependent kinase 5/CDK5 activator 1 (Homo sapiens, UniProt Q00535). In words: blockade of human CDK5 activity – biochemical, cherry-picked samples, set 2, dose response (AID 504545).
The subject of another assay is INS1. In words: INS-1E survival protection against cytokine death – cell-based, luminescence, retest, dose response (AID 449756).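 Also: cell death triggered by IL-1 beta plus TNF-alpha plus IFN-gamma mixture; protective hits raise ATP signal compared with cytokine alone wells.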 The note with it: Rattus norvegicus. The class given is functional.
In assay [2] the target is Luciferin 4-monooxygenase (Photinus pyralis, UniProt P08659). In words: inhibition of purified Photinus pyralis luciferase – biochemical, luminescence, dose response (AID 1891).
For a further assay, the target named is Paired box protein Pax-8 (Homo sapiens, UniProt Q06710). In words: PAX8 transcriptional activity inhibition in RMG-I – RMG-I cells, luciferase, cherry-pick, dose response (AID 687027).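 Also: luciferase reporter driven by Pax8 target thyroperoxidase promoter measured by SteadyGlo luminescence.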 The class given is functional, cell-based.
A short description of assay [3]: general cell-killing toxicity readout – plate reader, dry powder samples, cytotoxicity control for PAX8 inhibitor project, dose response (AID 743021). The class given is functional, cell-based.
The next assay concerns the target CAAX prenyl protease 2 (Homo sapiens, UniProt Q9Y256). In words: inhibition of Ras-converting CAAX protease Rce1 – biochemical, yeast membranes, quenched-peptide fluorescence, cherry-pick, dose response (AID 588849).
Assay [4] in a line: Luminescence Cell-Based Dose Confirmation HTS to Identify Inhibitors of Platelet Dense Granule Release. [Related pubchem assays: 1663 (Primary HTS), 1678 (Summary of Project)]. Format: functional.
Assay [5] has as its system BJ. In words: cells. Format: functional, cell-based. The note with it: Homo sapiens.
A short description of assay [6]: DRD fibroblast viability loss – cell-based, non-viral oncogenic, luminescence, dose response (AID 1934). The class given is functional. The note with it: Homo sapiens.
Assay [7] deals with Glucose-6-phosphate 1-dehydrogenase (Homo sapiens, UniProt P11413). In words: inhibition of Homo sapiens G6PD, dose series – biochemical, fluorescence, selectivity assay for P. falciparum G6PD inhibitor project, dose response (AID 504792). Format: functional.
The nature of assay [8]: ADP-Glo luciferase signal interference – biochemical, luminescence, cherry-picked samples, set 2, artefact control for CDK5 inhibitor project, dose response (AID 504546). The class given is functional, cell-based. A general note: ADP-Glo turns the ADP formed in a reaction into a luminescent signal.
For assay [9], the system named is BJ. In words: BJ-TERT fibroblast viability loss – cell-based, RAS-independent, luminescence, dose response (AID 1933). The class given is functional. The note with it: Homo sapiens.
The subject of assay [10] is HEK293. In words: EBV LMP1 TES2 canonical NF-kB signalling blockers – cell-based, HEK293, luciferase, cherry-pick, dose response (AID 588343). The class given is functional. Conditions: Homo sapiens.
Assay [11] concerns BJ. In words: BJ-TERT-LT-ST fibroblast viability loss – cell-based, RAS-independent, luminescence, dose response (AID 1935).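 Also: BJ fibroblasts immortalized with TERT plus LT and ST oncogenes.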 Format: functional. Conditions: Homo sapiens.
Assay [12] concerns the target T1, Long-chain-fatty-acid--AMP ligase FadD28 (Mycobacterium tuberculosis, UniProt P9WQ59).
T1 sequence (P9WQ59 whole entry): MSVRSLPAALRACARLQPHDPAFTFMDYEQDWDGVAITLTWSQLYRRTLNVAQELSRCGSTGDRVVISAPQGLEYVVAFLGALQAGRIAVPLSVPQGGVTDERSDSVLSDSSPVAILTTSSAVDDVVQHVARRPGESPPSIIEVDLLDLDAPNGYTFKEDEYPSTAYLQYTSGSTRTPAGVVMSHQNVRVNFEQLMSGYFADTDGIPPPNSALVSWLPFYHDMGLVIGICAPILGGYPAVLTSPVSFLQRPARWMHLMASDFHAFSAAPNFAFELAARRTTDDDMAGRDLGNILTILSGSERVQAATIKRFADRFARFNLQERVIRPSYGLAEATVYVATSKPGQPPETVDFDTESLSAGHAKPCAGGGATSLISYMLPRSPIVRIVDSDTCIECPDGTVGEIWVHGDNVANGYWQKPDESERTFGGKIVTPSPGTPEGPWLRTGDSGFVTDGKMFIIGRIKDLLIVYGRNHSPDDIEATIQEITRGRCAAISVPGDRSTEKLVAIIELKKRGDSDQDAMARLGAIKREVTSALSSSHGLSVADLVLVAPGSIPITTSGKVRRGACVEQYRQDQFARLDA
In words: Fluorescence polarization aasay to screen for inhibitors that compete for the binding of FadD28 to a bisubstrate Measured in Biochemical System Using Plate Reader - 2147-01_Inhibitor_Dose_CherryPick_Activity. The class given is functional, Mycobacterium tuberculosis H37Rv. A general note: Fluorescence polarisation rises when a labelled molecule tumbles more slowly, as on binding a larger partner.

A further assay addresses Aminopeptidase N (Plasmodium falciparum FcB1/Columbia, UniProt O96935). In words: malaria alanyl aminopeptidase activity blockers – biochemical, fluorogenic H-Leu-NHMec substrate, 1536-well (AID 1445). Further details: species or system Plasmodium falciparum 3D7, 3D7.
The target in another assay is Procathepsin L (Homo sapiens, UniProt P07711).
The target of another assay is T2, Aspartyl aminopeptidase (Plasmodium falciparum 3D7, UniProt Q8I2J3).
T2 sequence (Q8I2J3 whole entry): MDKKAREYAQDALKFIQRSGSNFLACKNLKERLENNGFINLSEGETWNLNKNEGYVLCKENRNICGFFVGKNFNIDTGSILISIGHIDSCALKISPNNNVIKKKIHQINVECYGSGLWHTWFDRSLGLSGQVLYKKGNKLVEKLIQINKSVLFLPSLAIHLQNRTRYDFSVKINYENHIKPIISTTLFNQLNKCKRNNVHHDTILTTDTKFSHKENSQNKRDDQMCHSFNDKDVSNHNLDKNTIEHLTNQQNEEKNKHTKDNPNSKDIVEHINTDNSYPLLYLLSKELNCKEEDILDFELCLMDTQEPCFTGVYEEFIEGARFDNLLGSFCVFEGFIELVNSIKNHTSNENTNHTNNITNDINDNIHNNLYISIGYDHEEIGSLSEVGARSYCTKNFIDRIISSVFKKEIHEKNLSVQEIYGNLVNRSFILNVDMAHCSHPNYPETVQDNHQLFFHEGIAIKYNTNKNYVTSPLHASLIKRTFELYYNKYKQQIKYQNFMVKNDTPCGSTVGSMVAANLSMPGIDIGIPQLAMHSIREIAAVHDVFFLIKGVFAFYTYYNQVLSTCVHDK

Another assay has as its target Vasopressin V1a receptor (Homo sapiens, UniProt P37288). In words: Counterscreen for Oxytocin Receptor (OXTR) agonists: Fluorescence-based cell-based high throughput dose response assay to identify agonists of the vasopressin 1 receptor (V1R). [Related pubchem assays: 2435 (Primary screen (OXTR agonists in singlicate)), 434991 (Counterscreen (V1R agonists in triplicate)), 2482 (Summary (OXTR agonists)) …. The class given is functional. (In general: The purpose of a counterscreen is to sort out artefacts and off-target activity.)

The target in another assay is Oxytocin receptor (Homo sapiens, UniProt P30559). In words: Fluorescence-based cell-based high throughput dose response assay for agonists of the Oxytocin Receptor (OXTR). [Related pubchem assays: 2435 (Primary screen (OXTR agonists in singlicate)), 434991 (Counterscreen (V1R agonists in triplicate)), 2482 (Summary (OXTR agonists)), 434963 (Confirmation screen (OXTR agonists in triplicate))]. Format: functional.

Assay [13] concerns HEK293. In words: Fluorescence-based counterscreen for potentiators or agonists of NPY-Y2: cell-based high-throughput dose response assay to identify inhibitors of cyclic nucleotide gated ion channel (CNGC) activity. In this assay, the parental HEK293 cell line transfected with a cyclic-nucleotide gated ion channel (CNGC)-based cAMP sensor is used to measure inhibition of isoproterenol-induced CNGC activity by test compound. Conditions: Homo sapiens. Format: functional.

The target in assay [14] is Neuropeptide Y receptor type 1 (Homo sapiens, UniProt P25929). In words: Fluorescence-based counterscreen for agonists of NPY-Y2: cell-based high-throughput dose response assay for agonists of NPY-Y1. The class given is functional.
Assay [15] has as its target Neuropeptide Y receptor type 2 (Homo sapiens, UniProt P49146). In words: Fluorescence-based cell-based high-throughput dose response assay for agonists of NPY-Y2. [Related pubchem assays: 1703 (Screening assay (CNGC inhibitors).), 1359 (Screening assay (NPY-Y2 potentiators or agonists).), 1304 (Screening assay (NPY-Y1 potentiators or agonists).), 1710 (Screening assay (NPY-Y2 agonists).), 1791 (Summary AID.)]. Format: functional.

Sequence of Vasopressin V1a receptor (P37288 whole entry): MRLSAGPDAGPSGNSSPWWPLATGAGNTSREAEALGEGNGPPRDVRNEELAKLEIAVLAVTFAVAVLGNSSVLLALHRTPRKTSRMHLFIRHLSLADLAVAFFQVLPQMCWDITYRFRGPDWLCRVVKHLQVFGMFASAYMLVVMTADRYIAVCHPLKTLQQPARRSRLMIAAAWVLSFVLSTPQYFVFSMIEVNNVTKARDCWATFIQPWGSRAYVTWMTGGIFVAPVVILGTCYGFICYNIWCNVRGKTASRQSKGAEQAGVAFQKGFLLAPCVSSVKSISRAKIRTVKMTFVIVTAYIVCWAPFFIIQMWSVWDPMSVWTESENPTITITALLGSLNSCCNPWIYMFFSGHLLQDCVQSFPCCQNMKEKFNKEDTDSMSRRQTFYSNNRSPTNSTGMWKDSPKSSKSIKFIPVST
Sequence of Neuropeptide Y receptor type 2 (P49146 whole entry): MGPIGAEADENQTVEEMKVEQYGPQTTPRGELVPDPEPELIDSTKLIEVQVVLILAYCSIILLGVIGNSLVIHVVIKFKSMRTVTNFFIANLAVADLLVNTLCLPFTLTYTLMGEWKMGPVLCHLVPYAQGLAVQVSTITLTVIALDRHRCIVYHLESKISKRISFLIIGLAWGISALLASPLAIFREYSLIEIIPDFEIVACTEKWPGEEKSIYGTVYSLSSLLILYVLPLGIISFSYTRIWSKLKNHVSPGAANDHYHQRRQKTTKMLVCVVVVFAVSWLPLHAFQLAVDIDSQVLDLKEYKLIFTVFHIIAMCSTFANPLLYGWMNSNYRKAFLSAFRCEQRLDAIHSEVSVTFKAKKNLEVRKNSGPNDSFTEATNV
Sequence of Procathepsin L (P07711 whole entry): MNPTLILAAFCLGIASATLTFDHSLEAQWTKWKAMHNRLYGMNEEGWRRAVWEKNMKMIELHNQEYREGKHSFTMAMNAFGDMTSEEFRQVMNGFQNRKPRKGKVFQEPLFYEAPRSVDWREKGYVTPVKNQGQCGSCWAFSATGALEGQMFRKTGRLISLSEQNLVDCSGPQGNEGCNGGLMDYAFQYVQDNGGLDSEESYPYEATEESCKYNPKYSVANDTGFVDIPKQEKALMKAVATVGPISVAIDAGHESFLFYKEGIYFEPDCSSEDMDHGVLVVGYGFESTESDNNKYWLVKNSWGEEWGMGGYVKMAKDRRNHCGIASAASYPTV
Sequence of CAAX prenyl protease 2 (Q9Y256 whole entry): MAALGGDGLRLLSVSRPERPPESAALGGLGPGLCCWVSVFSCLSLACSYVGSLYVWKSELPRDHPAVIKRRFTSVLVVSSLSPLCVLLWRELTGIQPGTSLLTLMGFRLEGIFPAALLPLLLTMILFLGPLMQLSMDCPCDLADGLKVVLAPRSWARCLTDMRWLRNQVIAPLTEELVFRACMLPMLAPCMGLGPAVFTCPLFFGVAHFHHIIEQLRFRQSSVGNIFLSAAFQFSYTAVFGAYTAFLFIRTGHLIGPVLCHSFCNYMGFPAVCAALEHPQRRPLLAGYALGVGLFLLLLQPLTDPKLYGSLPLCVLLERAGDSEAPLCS
Sequence of Neuropeptide Y receptor type 1 (P25929 whole entry): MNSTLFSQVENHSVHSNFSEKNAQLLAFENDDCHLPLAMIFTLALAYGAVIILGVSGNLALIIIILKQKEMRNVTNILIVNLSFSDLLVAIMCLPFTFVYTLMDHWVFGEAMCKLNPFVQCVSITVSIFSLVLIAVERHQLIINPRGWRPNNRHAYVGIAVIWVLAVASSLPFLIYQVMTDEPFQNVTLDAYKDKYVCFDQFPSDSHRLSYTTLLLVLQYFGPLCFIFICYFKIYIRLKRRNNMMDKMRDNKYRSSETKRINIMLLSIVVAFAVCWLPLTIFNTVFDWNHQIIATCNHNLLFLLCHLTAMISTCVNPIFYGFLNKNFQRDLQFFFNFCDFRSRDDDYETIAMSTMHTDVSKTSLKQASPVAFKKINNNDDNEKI
Sequence of Paired box protein Pax-8 (Q06710 whole entry): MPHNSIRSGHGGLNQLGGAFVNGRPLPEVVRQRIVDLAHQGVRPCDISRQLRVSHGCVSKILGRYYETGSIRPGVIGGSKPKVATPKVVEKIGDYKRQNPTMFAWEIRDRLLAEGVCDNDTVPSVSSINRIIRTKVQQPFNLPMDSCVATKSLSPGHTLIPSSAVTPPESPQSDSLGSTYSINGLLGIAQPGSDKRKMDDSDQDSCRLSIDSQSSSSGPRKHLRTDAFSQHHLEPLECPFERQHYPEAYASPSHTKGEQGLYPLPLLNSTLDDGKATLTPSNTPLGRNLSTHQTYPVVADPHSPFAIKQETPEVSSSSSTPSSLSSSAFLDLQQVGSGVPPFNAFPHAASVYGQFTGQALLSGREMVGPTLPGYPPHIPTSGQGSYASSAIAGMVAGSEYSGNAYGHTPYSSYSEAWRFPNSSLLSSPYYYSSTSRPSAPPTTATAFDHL
Sequence of Oxytocin receptor (P30559 whole entry): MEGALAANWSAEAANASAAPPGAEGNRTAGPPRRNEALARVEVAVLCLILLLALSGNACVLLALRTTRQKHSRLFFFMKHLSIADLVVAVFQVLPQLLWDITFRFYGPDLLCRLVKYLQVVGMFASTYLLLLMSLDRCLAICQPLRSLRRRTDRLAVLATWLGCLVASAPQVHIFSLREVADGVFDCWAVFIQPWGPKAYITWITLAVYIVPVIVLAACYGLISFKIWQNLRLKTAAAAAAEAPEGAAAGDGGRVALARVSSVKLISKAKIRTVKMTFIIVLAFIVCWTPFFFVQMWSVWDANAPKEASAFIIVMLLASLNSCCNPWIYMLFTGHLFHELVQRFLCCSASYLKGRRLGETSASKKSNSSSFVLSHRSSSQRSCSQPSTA
Sequence of Glucose-6-phosphate 1-dehydrogenase (P11413 whole entry): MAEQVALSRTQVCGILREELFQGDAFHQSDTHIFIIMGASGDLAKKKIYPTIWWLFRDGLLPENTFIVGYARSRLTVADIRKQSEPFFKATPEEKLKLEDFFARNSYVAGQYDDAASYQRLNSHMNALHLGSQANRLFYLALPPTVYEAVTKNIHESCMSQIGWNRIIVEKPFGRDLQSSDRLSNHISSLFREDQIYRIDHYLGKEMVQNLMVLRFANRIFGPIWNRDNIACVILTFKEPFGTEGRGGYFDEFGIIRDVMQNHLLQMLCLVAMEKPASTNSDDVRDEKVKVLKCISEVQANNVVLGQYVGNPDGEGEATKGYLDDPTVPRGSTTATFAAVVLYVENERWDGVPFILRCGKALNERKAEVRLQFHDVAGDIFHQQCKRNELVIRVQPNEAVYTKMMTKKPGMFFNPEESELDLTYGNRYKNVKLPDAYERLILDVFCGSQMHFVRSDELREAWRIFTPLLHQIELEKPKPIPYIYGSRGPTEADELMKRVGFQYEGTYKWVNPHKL
Sequence of Cyclin-dependent kinase 5/CDK5 activator 1 (Q00535 whole entry): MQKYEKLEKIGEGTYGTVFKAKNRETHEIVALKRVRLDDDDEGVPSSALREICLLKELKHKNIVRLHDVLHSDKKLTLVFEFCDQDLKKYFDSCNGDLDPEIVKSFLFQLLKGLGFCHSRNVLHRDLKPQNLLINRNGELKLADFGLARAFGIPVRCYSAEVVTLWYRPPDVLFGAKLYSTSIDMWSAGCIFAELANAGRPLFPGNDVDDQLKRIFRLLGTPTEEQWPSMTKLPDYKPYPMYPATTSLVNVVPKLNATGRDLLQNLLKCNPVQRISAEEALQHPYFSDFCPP
Sequence of Cyclin-dependent kinase 5/CDK5 activator 1 (Q15078 whole entry, further chain): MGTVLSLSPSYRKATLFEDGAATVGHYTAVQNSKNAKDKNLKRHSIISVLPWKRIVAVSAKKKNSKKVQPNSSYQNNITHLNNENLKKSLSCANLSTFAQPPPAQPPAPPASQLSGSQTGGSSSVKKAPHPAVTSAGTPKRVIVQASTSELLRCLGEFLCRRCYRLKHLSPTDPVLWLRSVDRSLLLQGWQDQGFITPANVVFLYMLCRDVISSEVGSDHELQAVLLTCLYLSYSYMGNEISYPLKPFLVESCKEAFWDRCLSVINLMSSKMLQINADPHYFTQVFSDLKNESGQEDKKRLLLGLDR
Sequence of Luciferin 4-monooxygenase (P08659 whole entry): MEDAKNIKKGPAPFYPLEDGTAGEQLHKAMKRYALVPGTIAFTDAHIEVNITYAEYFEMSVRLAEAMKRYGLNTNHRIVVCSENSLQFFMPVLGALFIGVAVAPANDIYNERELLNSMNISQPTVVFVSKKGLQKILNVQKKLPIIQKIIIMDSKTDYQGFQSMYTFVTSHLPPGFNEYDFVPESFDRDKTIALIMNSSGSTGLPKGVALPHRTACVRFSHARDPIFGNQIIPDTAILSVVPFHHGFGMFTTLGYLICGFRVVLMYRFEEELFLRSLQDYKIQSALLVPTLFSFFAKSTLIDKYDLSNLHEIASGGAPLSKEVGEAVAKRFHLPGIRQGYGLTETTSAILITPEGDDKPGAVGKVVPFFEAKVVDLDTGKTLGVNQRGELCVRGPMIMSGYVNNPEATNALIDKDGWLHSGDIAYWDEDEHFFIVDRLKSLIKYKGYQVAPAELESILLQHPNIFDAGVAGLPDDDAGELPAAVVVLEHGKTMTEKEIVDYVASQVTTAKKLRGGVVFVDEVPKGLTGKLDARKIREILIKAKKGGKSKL

Regarding `COc1ccc(/C=C/c2nc3ccccc3n2C)cc1`, the AC50 in assay [1] is 16.4 µM (active); in the assay with INS1 it was 4.95 µM (active); on Paired box protein Pax-8 it was 6.69 µM (active); in assay [3], 5.95 µM (active); on CAAX prenyl protease 2, 7.09 µM (active); in assay [8] it was 27 µM (active). The AC50 with HEK293 [10] is 0.997 µM (active). Further, the EC50 in [2] was 0.747 µM (active); in assay [4] it was 1.01 µM (active); with BJ [5] it was 7.64 µM (active); in assay [6], 7.64 µM (active); with BJ [9], 9.33 µM (active); in the assay on BJ [11], > 150 µM (inconclusive). Besides, the IC50 in [7] was > 80 µM (inactive).

For `NS(=O)(=O)c1ccc(Nc2nc3ccccc3nc2NS(=O)(=O)c2cccc([N+](=O)[O-])c2)cc1`, the AC50 in assay [12] was 53 µM (active). The IC50 on Aminopeptidase N was 42.9 µM (active).

Take `Cc1ccc(N2C(=O)/C(=C\Nn3cnnc3)c3ccccc3C2=O)cc1`: the IC50 against Procathepsin L is > 59.6 µM (not active); on Aspartyl aminopeptidase, 1.95 µM (active).

Consider `CC(C(=O)Nc1ccc2c(c1)OCO2)c1ccc([N+](=O)[O-])cc1` (stereo not drawn), for which the EC50 on Vasopressin V1a receptor and on Oxytocin receptor was > 29.9 µM (not active) throughout.

Turning to `COc1ccc(Cn2cnc3c(NS(C)(=O)=O)c(C)c(C)cc32)cc1`, the EC50 with HEK293 [13] was > 35.4 µM (not active); in [14], 19.3 µM (not active); in assay [15], > 35.4 µM (not active).
